Consider twelve molecules from PubChem BioAssay AID624129 (Sanford-Burnham Center for Chemical Genomics, 2012).

The source made the active and inactive calls. The rule behind the calls is not given here. A value given as a limit tells only on which side of the number the result lay.

What all share (test): potency against CXCR6 with APJ panel – cell-based, beta-arrestin, DiscoveRx, uHTS hits, dose response (AID 624129)
Experiment [1] has as its target C-X-C chemokine receptor type 6 (Homo sapiens) (UniProt O00574). Conditions: CXCR6 beta-arrestin (DiscoveRx) antagonist cell assay; for inhibition: CXCR6, run 1, dose range 2, at 80 µM (top of the series).
Experiment [2] deals with Apelin receptor (Homo sapiens) (UniProt P35414). The conditions noted are these: CXCR6 beta-arrestin (DiscoveRx) antagonist cell assay, APJ.
Experiment [3] deals with Beta-galactosidase (Escherichia coli) (UniProt Q8VNN2). Conditions: CXCR6 beta-arrestin (DiscoveRx) antagonist cell assay, b-galactosidase.
Sequence of Beta-galactosidase (Escherichia coli) (Q8VNN2 whole entry, looked up): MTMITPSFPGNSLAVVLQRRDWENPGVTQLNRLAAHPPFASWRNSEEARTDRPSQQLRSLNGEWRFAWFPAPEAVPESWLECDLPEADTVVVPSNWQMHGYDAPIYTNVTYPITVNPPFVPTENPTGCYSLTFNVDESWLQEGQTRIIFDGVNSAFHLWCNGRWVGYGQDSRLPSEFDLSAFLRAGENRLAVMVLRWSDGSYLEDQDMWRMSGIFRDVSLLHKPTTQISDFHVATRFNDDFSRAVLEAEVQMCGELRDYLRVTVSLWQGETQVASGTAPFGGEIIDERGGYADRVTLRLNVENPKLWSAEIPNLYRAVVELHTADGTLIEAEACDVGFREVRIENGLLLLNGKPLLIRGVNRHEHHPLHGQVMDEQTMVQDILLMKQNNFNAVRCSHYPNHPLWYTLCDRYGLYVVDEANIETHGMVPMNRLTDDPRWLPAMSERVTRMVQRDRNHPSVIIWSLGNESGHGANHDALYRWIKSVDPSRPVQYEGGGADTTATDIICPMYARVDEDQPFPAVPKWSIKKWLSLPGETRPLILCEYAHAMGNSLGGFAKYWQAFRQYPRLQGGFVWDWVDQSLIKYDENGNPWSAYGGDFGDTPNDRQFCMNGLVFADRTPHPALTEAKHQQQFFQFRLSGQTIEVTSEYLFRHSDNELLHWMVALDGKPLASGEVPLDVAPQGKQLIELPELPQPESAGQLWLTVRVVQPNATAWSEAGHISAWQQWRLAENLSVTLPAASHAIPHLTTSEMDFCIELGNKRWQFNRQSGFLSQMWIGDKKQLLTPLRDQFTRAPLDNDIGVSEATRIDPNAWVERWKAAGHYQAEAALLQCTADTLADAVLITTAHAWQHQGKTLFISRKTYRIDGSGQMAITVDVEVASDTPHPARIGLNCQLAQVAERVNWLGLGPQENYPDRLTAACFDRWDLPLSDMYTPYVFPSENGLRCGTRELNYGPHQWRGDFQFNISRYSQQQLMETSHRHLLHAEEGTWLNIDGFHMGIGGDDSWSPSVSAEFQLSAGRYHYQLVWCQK
The target in experiment [4] is C-C chemokine receptor type 6 (Homo sapiens) (UniProt P51684). Conditions: CXCR6 beta-arrestin (DiscoveRx) antagonist cell assay.
[5] abbreviates: CXCR6, dose range 1, mean IC50 across replicates.
Where [6] appears, read: dose range 1, mean IC50 across replicates.
Where [7] appears, read: CCR6, dose range 1, mean IC50 across replicates.

Sequence of C-X-C chemokine receptor type 6 (Homo sapiens) (O00574 whole entry, looked up): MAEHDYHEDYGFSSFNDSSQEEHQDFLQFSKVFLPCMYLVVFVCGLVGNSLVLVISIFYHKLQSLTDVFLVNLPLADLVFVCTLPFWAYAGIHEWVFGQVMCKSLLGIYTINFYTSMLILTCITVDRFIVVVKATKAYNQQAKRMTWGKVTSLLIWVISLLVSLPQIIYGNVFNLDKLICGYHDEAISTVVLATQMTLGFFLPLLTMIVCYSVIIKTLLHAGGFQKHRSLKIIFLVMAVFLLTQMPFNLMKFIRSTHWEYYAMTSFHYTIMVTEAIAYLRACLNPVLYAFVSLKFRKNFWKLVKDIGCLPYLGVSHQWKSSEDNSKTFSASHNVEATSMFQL

Consider `Cc1ccccc1Oc1cc(-n2ncc(Cl)c(Cl)c2=O)ncn1`, for which the IC50 is 1.57 µM in experiment [1] (CXCR6, dose range 1); 1.48 µM in experiment [1] (setting [5]); 1.38 µM in experiment [1] (CXCR6, run 2, dose range 1); 3.31 µM in experiment [2] (dose range 1); 4.62 µM in experiment [2] (setting [6]); 5.92 µM in experiment [2] (run 2, dose range 1). The IC50 in experiment [2] (run 3, dose range 1) was over 80 µM; in experiment [3] (dose range 1), > 80 µM (inactive); in experiment [3] (setting [6]), over 80 µM; in experiment [4] (CCR6, dose range 1), 1.27 µM; in experiment [4] (setting [7]), 1.51 µM; in experiment [4] (CCR6, run 2, dose range 1), 1.75 µM. For the same molecule, in experiment [1], the inhibition was determined as 105%.
Take `O=C1C=CC2(C=C1)O[C@H](Cc1ccccc1)[C@@H](Cc1ccccc1)O2`: the IC50 in experiment [1] (CXCR6, dose range 1) was 8.93 µM; in experiment [1] (setting [5]), 8.35 µM; in experiment [1] (CXCR6, run 1, dose range 2) it was 6.66 µM; in experiment [1] (CXCR6, run 2, dose range 1), 7.5 µM; in experiment [1] (CXCR6, run 2, dose range 2), 10.3 µM; in experiment [2] (dose range 1), 7.98 µM. Besides, the concentration for half-maximal inhibition (IC50) in experiment [2] (setting [6]) was 8.39 µM; in experiment [2] (run 2, dose range 1) it was 8.95 µM; in experiment [2] (run 3, dose range 1) it was 8.25 µM; in experiment [3] (dose range 1), > 80 µM (inactive); in experiment [3] (setting [6]), over 80 µM; in experiment [4] (CCR6, dose range 1) it was 4.44 µM. The concentration for half-maximal inhibition (IC50) in experiment [4] (setting [7]) was 4.75 µM; in experiment [4] (CCR6, run 2, dose range 1), 5.06 µM.
Regarding `CCCOc1cccc(-c2cc(C(=O)N/N=C/c3ccccn3)c3ccccc3n2)c1`, the IC50 is 9.05 µM in experiment [1] (CXCR6, dose range 1); 8.66 µM in experiment [1] (setting [5]); 4.31 µM in experiment [1] (CXCR6, run 1, dose range 2); 14.5 µM in experiment [1] (CXCR6, run 2, dose range 1); 6.79 µM in experiment [1] (CXCR6, run 2, dose range 2); 5.48 µM in experiment [2] (dose range 1). Further, the IC50 was 7.37 µM in experiment [2] (setting [6]); 9.25 µM in experiment [2] (run 2, dose range 1); over 80 µM in experiment [2] (run 3, dose range 1); > 80 µM (inactive) in experiment [3] (dose range 1); over 80 µM in experiment [3] (setting [6]); 2.7 µM in experiment [4] (CCR6, dose range 1). For the same molecule, the IC50 in experiment [4] (setting [7]) amounted to 3.67 µM; in experiment [4] (CCR6, run 2, dose range 1) it was 4.63 µM.
In the case of `CNc1cc(Cl)c2nonc2c1[N+](=O)[O-]`, the concentration for half-maximal inhibition (IC50) in experiment [1] (CXCR6, dose range 1) was 3.61 µM; in experiment [1] (setting [5]), 3.39 µM; in experiment [1] (CXCR6, run 1, dose range 2), 3.02 µM; in experiment [1] (CXCR6, run 2, dose range 1) it was 4.12 µM; in experiment [1] (CXCR6, run 2, dose range 2), 2.83 µM; in experiment [2] (dose range 1), 5.88 µM. Besides, the concentration for half-maximal inhibition (IC50) in experiment [2] (setting [6]) is 8.61 µM; in experiment [2] (run 2, dose range 1), 4.89 µM; in experiment [2] (run 3, dose range 1), 15.1 µM; in experiment [3] (dose range 1), > 80 µM (inactive); in experiment [3] (setting [6]) it was over 80 µM; in experiment [4] (CCR6, dose range 1), 3.13 µM. Also, the IC50 in experiment [4] (setting [7]) was determined as 3.29 µM; in experiment [4] (CCR6, run 2, dose range 1), 3.46 µM.
Regarding `CC(=O)Nc1ccc(NC(=O)c2nc(S(=O)(=O)Cc3cccc(C)c3)ncc2Cl)cc1`, the IC50 in experiment [1] (setting [5]) is 4.95 µM; in experiment [1] (CXCR6, run 2, dose range 1), 4.95 µM; in experiment [2] (dose range 1), 7.19 µM; in experiment [2] (setting [6]), 8.89 µM; in experiment [2] (run 2, dose range 1) it was 10.8 µM; in experiment [2] (run 3, dose range 1) it was 8.71 µM. Besides, the IC50 is > 80 µM (inactive) in experiment [3] (dose range 1); over 80 µM in experiment [3] (setting [6]); 6.61 µM in experiment [4] (CCR6, dose range 1); 5.6 µM in experiment [4] (setting [7]); 4.59 µM in experiment [4] (CCR6, run 2, dose range 1). Further, the inhibition in experiment [1] was found to be 23.1%.
For `Cc1[nH][nH]c(=O)c1C(c1c(C)[nH][nH]c1=O)c1cn(Cc2ccc(Cl)c(Cl)c2)c2ccccc12`, the IC50 result in experiment [1] (CXCR6, dose range 1) was “inactive”. The IC50 in experiment [1] (setting [5]) is 26.6 µM; in experiment [1] (CXCR6, run 2, dose range 1), 24.8 µM; in experiment [2] (dose range 1), 19.4 µM; in experiment [2] (setting [6]), 37 µM; in experiment [2] (run 2, dose range 1), 59.3 µM; in experiment [2] (run 3, dose range 1), 32.3 µM. Also, the IC50 is > 80 µM (inactive) in experiment [3] (dose range 1); over 80 µM in experiment [3] (setting [6]); 16.6 µM in experiment [4] (CCR6, dose range 1); 22.1 µM in experiment [4] (setting [7]); 27.6 µM in experiment [4] (CCR6, run 2, dose range 1). For the same molecule, the inhibition in experiment [1] stood at 115%.
In the case of `CNC(=O)c1nnsc1S(=O)(=O)c1ccc(Cl)cc1`, in experiment [1] (CXCR6, dose range 1), the IC50 result was “inactive”. Moreover, the IC50 was 12.1 µM in experiment [1] (setting [5]); 10.7 µM in experiment [1] (CXCR6, run 2, dose range 1); 14.3 µM in experiment [2] (dose range 1); 15.7 µM in experiment [2] (setting [6]); 16.1 µM in experiment [2] (run 2, dose range 1); 16.5 µM in experiment [2] (run 3, dose range 1). For the same molecule, the IC50 in experiment [3] (dose range 1) was > 80 µM (inactive); in experiment [3] (setting [6]), over 80 µM; in experiment [4] (CCR6, dose range 1), 10.5 µM; in experiment [4] (setting [7]) it was 12 µM; in experiment [4] (CCR6, run 2, dose range 1), 13.5 µM. For the same molecule, in experiment [1], the inhibition was 116%.
Take `Cc1ccc2c(Cl)cc(Cl)c(O)c2n1`: the IC50 in experiment [1] (CXCR6, dose range 1) is 4.4 µM; in experiment [1] (setting [5]), 3.59 µM; in experiment [1] (CXCR6, run 1, dose range 2), 3.41 µM; in experiment [1] (CXCR6, run 2, dose range 1), over 80 µM; in experiment [1] (CXCR6, run 2, dose range 2), 2.96 µM; in experiment [2] (dose range 1) it was 2.79 µM. Besides, the concentration for half-maximal inhibition (IC50) in experiment [2] (setting [6]) was 5.05 µM; in experiment [2] (run 2, dose range 1), 5.23 µM; in experiment [2] (run 3, dose range 1), 7.12 µM; in experiment [3] (dose range 1) it was > 80 µM (inactive); in experiment [3] (setting [6]), over 80 µM; in experiment [4] (CCR6, dose range 1) it was 3.37 µM. Moreover, the IC50 in experiment [4] (setting [7]) was determined as 3.57 µM; in experiment [4] (CCR6, run 2, dose range 1) it was 3.77 µM.
Consider `C=CCn1nc([N+](=O)[O-])nc1Sc1cccc2cccnc12`, for which the IC50 result in experiment [1] (CXCR6, dose range 1) is “inactive”. The IC50 in experiment [1] (setting [5]) was 59.6 µM; in experiment [1] (CXCR6, run 2, dose range 1) it was over 80 µM; in experiment [2] (dose range 1) it was 75.1 µM; in experiment [2] (setting [6]), 49.3 µM; in experiment [2] (run 2, dose range 1), 36 µM; in experiment [2] (run 3, dose range 1) it was 36.8 µM. The IC50 in experiment [3] (dose range 1) is > 80 µM (inactive); in experiment [3] (setting [6]) it was over 80 µM; in experiment [4] (CCR6, dose range 1), 39 µM; in experiment [4] (setting [7]), 35.3 µM; in experiment [4] (CCR6, run 2, dose range 1) it was 31.6 µM. For the same molecule, the inhibition in experiment [1] was 82.2%.
`CCS(=O)(=O)c1ncc(Cl)c(C(=O)Nc2ccc(S(=O)(=O)N3CCC(C)CC3)cc2)n1`: the half-inhibitory concentration (IC50) is 7.4 µM in experiment [1] (CXCR6, dose range 1); 8.21 µM in experiment [1] (setting [5]); 8.3 µM in experiment [1] (CXCR6, run 1, dose range 2); 7.89 µM in experiment [1] (CXCR6, run 2, dose range 1); 9.26 µM in experiment [1] (CXCR6, run 2, dose range 2); 7.82 µM in experiment [2] (dose range 1). Moreover, the half-maximal inhibitory concentration (IC50) was 7.15 µM in experiment [2] (setting [6]); 6.41 µM in experiment [2] (run 2, dose range 1); 7.21 µM in experiment [2] (run 3, dose range 1); > 80 µM (inactive) in experiment [3] (dose range 1); over 80 µM in experiment [3] (setting [6]); 5.88 µM in experiment [4] (CCR6, dose range 1). The IC50 in experiment [4] (setting [7]) is 5.71 µM; in experiment [4] (CCR6, run 2, dose range 1) it was 5.55 µM.
As for `CC(C)(C)c1ccc(-n2nc(C#N)c(Cl)cc2=O)cc1`, the half-inhibitory concentration (IC50) in experiment [1] (CXCR6, dose range 1) was 11.5 µM; in experiment [1] (setting [5]), 8.28 µM; in experiment [1] (CXCR6, run 1, dose range 2), 5.14 µM; in experiment [1] (CXCR6, run 2, dose range 1), 8.56 µM; in experiment [1] (CXCR6, run 2, dose range 2) it was 7.92 µM; in experiment [2] (dose range 1), 7.12 µM. The IC50 in experiment [2] (setting [6]) is 7.86 µM; in experiment [2] (run 2, dose range 1), 5.54 µM; in experiment [2] (run 3, dose range 1) it was 10.9 µM; in experiment [3] (dose range 1) it was > 80 µM (inactive); in experiment [3] (setting [6]), over 80 µM; in experiment [4] (CCR6, dose range 1) it was 3.8 µM. In addition, the IC50 in experiment [4] (setting [7]) was determined as 5.45 µM; in experiment [4] (CCR6, run 2, dose range 1), 7.1 µM.
Consider `Cc1cccc(CSc2cccc3cccnc23)c1`, for which the IC50 in experiment [1] (CXCR6, dose range 1) is 3.79 µM; in experiment [1] (setting [5]), 3.51 µM; in experiment [1] (CXCR6, run 1, dose range 2), 2.78 µM; in experiment [1] (CXCR6, run 2, dose range 1), 4.39 µM; in experiment [1] (CXCR6, run 2, dose range 2) it was 3.09 µM; in experiment [2] (dose range 1) it was 2.86 µM. For the same molecule, the IC50 was 3.95 µM in experiment [2] (setting [6]); 4.91 µM in experiment [2] (run 2, dose range 1); 4.08 µM in experiment [2] (run 3, dose range 1); > 80 µM (inactive) in experiment [3] (dose range 1); over 80 µM in experiment [3] (setting [6]); 3.94 µM in experiment [4] (CCR6, dose range 1). The half-maximal inhibitory concentration (IC50) in experiment [4] (setting [7]) is 4.64 µM; in experiment [4] (CCR6, run 2, dose range 1) it was 5.33 µM.
